According to US20040086504A1, “Cyr61 as a target for treatment and diagnosis of breast cancer” (priority 2003, published 2004):
Starred links: 1 amine or outer side, 2 acyl side, 3 side chain; linkers in the order of their positions; H or OH if unused. Positions of bridges follow the written chain, without caps; N, C: chain ends. Non-standard residues stand in square brackets, D forms with d. Residues, ends and D or L forms follow the SMILES beside them. Chains are numbered I, II in the order given. Actinocin(9to1) = Cc1c2oc3c(C)ccc(C(=O)[*:1])c3nc-2c(C(=O)[*:2])c(N)c1=O; NMeV = CN[C@H](C(=O)O)C(C)C; Sar = CNCC(=O)O

How the values were obtained:
Cyr61 [1] = assay: Cyr61 mRNA/protein expression in MDA-MB-453 cells (Northern/Western blot); type: cell-based, human; settings: for effect on DHT induction of Cyr61: co-treatment with 1 nM DHT
Cyr61 [2] = assay: Cyr61 mRNA/protein expression in T47D cells (Northern/Western blot)
Cyr61 [3] = assay: Cyr61 mRNA/protein expression in MCF-7 cells (Northern/Western blot); settings: for block of 17β-estradiol upregulation of Cyr61: co-treatment with 17β-estradiol
Cyr61 [4] = assay: Cyr61 mRNA expression in ZR-75-1 cells (Northern blot); type: cell-based, human
Description: (§1) Incubation and analysis were performed according to techniques described in Example 1.
(§2) Total cellular RNA was isolated from cultured adenocarcinoma cells by guanidium isothiocynate lysis followed by phenol/chloroform extraction.

Cyr61 [5] = assay: Cyr61 mRNA expression in MDA-MB-231 cells (Northern blot); type: cell-based, human; settings: AR- MDA-MB-231 cells
Description: as §1, §2

Cc1c2oc3c(C)ccc(C(=O)N[C@@H]4C(=O)N[C@H](C(C)C)C(=O)N5CCC[C@H]5C(=O)N(C)CC(=O)N(C)[C@@H](C(C)C)C(=O)O[C@@H]4C)c3nc-2c(C(=O)N[C@@H]2C(=O)N[C@H](C(C)C)C(=O)N3CCC[C@H]3C(=O)N(C)CC(=O)N(C)[C@@H](C(C)C)C(=O)O[C@@H]2C)c(N)c1=O [actinomycin D] (I: T[dV]P[Sar][NMeV] / II: T[dV]P[Sar][NMeV]; ester I:1-I:C, II:1-II:C; linker I:N-II:N via Actinocin(9to1))
effect on DHT induction of Cyr61 (Cyr61 [1]): completely blocked
block of R5020 upregulation of Cyr61 (Cyr61 [2]; co-treatment with R5020): fully blocked
block of 17β-estradiol upregulation of Cyr61 (Cyr61 [3]): fully blocked

C[C@]12CCC(=O)C[C@@H]1CC[C@@H]1[C@@H]2CC[C@]2(C)[C@@H](O)CC[C@@H]12 [DHT]
maximum expression of Cyr61 mRNA and protein (Cyr61 [1]): 8 fold
time of maximum expression of Cyr61 mRNA and protein (Cyr61 [1]): ≤ 0.5 h
concentration of maximal expression of Cyr61 mRNA and protein (Cyr61 [1]; dose-dependent): 1.0 nM
EC50 (Cyr61 [1]; read-out: EC50 for upregulation of Cyr61 mRNA and protein): ~0.3 nM
induction of Cyr61 (Cyr61 [4]): lack of induction
expression of Cyr61 (Cyr61 [5]): not enhanced

CC(C)(O)C(=O)Nc1ccc([N+](=O)[O-])c(C(F)(F)F)c1 [2-OH flutamide]
effect on DHT induction of Cyr61 (Cyr61 [1]): completely abrogated

C[C@]12CC[C@@H]3c4ccc(O)cc4CC[C@H]3[C@@H]1CC[C@@H]2O [17β-estradiol]
upregulation of Cyr61 mRNA (Cyr61 [3]): upregulation
effects of EGF on mRNA transcription (Cyr61 [3]; with EGF): stimulates

C[C@@H]1C[C@@H]([C@H](O)CC2CC(=O)NC(=O)C2)C(=O)[C@@H](C)C1 [cycloheximide]
Cyr61 mRNA on co-treatment with DHT compared to DHT treatment alone (Cyr61 [1]): significant overexpression
effect on DHT induction of Cyr61 (Cyr61 [1]): not observed
block of 17β-estradiol upregulation of Cyr61 (Cyr61 [3]): not

EGF: epidermal growth factor (NSDSECPLSHDGYCLHDGVCMYIEALDKYACNCVVGYIGERCQYRDLKWWELR; UniProt P01133 971-1023, looked up)
time to maximal levels of Cyr61 mRNA (Cyr61 [4]): ≤ 0.5 h
expression of Cyr61 (Cyr61 [5]): rapidly induced

CCC(=O)[C@@]1(C)CC[C@H]2[C@@H]3CCC4=CC(=O)CCC4=C3CC[C@@]21C [R5020]
induction of Cyr61 mRNA transcription (Cyr61 [2]): dose-dependent manner
effects of EGF on mRNA transcription (Cyr61 [2]; with EGF): stimulates
